The text below walks through data of paper PMC11844072, “Novel 5,6-dichlorobenzimidazole derivatives as dual BRAFWT and BRAFV600E inhibitors: design, synthesis, anti-cancer activity and molecular dynamics simulations” (BMC Chemistry, 2025).

The subject of data set [1] is HSF cell line. The experiment in a line: Cytotoxicity on HSF normal cell line (SRB assay). Type of data set: cell-based. The conditions noted are these: HSF normal human skin fibroblast; mean of three ± SD. How it is done: The dichlorobenzimidazole derivative 10h was tested in Nawah scientific—Cairo—Egypt for its cytotoxic activity on HSF cell line as stated in the Additional file A [53, 54].
6. Analysis of 10h on HSF normal cell line
Human Skin Fibroblast (HSF) was obtained from Nawah Scientific Inc., (Mokatam, Cairo, Egypt). Cells were maintained in DMEM media supplemented with […] of streptomycin, 100 units/mL of penicillin and 10% of heat-inactivated fetal bovine serum in humidified, 5% (v/v) CO2atmosphere at 37 °C. Cell viability was assessed by SRB assay. Aliquots of 100 μL cell suspension (5x10^3 cells) were in 96-well plates and incubated in complete media for 24 h. Cells were treated with another aliquot of 100 μL media containing drugs at various concentrations.
After drug exposure, cells were fixed by replacing media with 150 μL of 10% TCA and incubated at 4 °C for 1 h. The TCA solution was removed, and the cells were washed 5 times with distilled water. Aliquots of 70 μL SRB solution (0.4% w/v) were added and incubated in a dark place at room temperature for 10 min. Plates were washed 3 times with 1% acetic acid and allowed to air-dry overnight. Then, 150 μL of TRIS (10 mM) was added to dissolve protein-bound SRB stain; the absorbance was measured at 540 nm using an Infinite F50 microplate reader (TECAN, Switzerland).
6.2. Dose response curve of 10h on HSF normal cell line
Figure 66. […]

In data set [2] the test system is HT29 cell line. The experiment in a line: Apoptosis assay (Annexin V-FITC/PI). Type of data set: cell-based, human. How it is done: As stated in the Additional file A, the populations of apoptotic and necrotic cells of HT29 cell line were detected after treatment with 10h employing Annexin V-FITC apoptosis detection kit (For further details see Additional file A). […]
HT29: Colon Cancer was obtained from Nawah Scientific Inc., (Mokatam, Cairo, Egypt). […]
Apoptosis and necrosis cell populations are determined using Annexin V-FITC apoptosis detection kit (Abcam Inc., Cambridge Science Park, Cambridge, UK) coupled with 2 fluorescent channels flowcytometry. After treatment with test compounds for 48h, cells (10^5 cells) are collected by trypsinization and washed twice with ice-cold PBS (pH 7.4). Then, cells are incubated in dark with 0.5 ml of Annexin V-FITC/PI solution for 30 min in dark at room temperature according to manufacturer protocol. After staining, cells are injected via ACEA Novocyte™ flowcytometer (ACEA Biosciences Inc., San Diego, CA, USA) and analysed for FITC and PI fluorescent signals using FL1 and FL2 signal detector, respectively (λex/em 488/530 nm for FITC and λex/em 535/617 nm for PI). For each sample, 12,000 events are acquired and positive FITC and/or PI cells are quantified by quadrant analysis and calculated using ACEA NovoExpress™ software (ACEA Biosciences Inc., San Diego, CA,

Data set [3] concerns the target FGFR-1 (Homo sapiens, UniProt P11362). The experiment in a line: FGFR-1 kinase assay (Kinase-Glo Max luminescence). For orientation: Kinase-Glo reads ATP consumption through a luciferase reaction.
Experimental: (§1) The inhibitory activity against different kinases was determined using kinase kits (BRAF WT
(§2) Glo Max luminescence kinase assay kit (Promega).
(§3) The assay was carried out according to the protocol provided by the manufacturer. A stock solution of the synthesized derivatives in 100% DMSO was prepared. Subsequently, the compounds were diluted to 10% DMSO.
(§4) A master mixture was prepared according to the number of wells. For BRAF assay each well include 6 μl of 5x Kinase Buffer 1 + 1 μl of ATP (500 μM) + 10 μl of 5X Raf substrate + 8 μl of distilled water. 1x Kinase buffer 1 was prepared by mixing 600 μl of 5x Kinase Buffer 1 with 2400 μl water to give 3 mL. Kinases were thawed on ice and were diluted with 1x Kinase Buffer 1. […]
(§5) The plate was incubated at 30 °C for 45 min. Subsequently, 50 μl of Kinase-Glo Max luminescence reagent was added to each well and the plate was covered with aluminum foil and incubated at room temperature for 15 min. Finally, the luminescence was recorded using multimode microplate reader. […]
(§6) The luminescence data were analyzed as follows. The difference between luminescence intensities in the absence of kinase (Lu t) and in the presence of kinase (Lu c) was defined as 100 %
(§7) calculated as: % activity = {(Lu t - Lu)/(Lut - Luc)} ×100%. The concentration of the test compounds required to reduce the kinase activity by 50% was determined from dose-response curves and
Data set [4] deals with VEGFR-2 (Homo sapiens, UniProt P35968). The experiment in a line: VEGFR-2 kinase assay (Kinase-Glo Max luminescence).
Experimental: as §1, §2, §3, §4, §5, §6, §7
Data set [5] deals with BRAFV600E (Homo sapiens, UniProt P15056, V600E). The experiment in a line: BRAFV600E kinase assay kit (Kinase-Glo Max luminescence).
Experimental: as §1, §2, §3, §4, §5, §6, §7
Setting [6] is: HT29, at its GI50 concentration, 48h.

Chain of FGFR-1 (P11362 22-822): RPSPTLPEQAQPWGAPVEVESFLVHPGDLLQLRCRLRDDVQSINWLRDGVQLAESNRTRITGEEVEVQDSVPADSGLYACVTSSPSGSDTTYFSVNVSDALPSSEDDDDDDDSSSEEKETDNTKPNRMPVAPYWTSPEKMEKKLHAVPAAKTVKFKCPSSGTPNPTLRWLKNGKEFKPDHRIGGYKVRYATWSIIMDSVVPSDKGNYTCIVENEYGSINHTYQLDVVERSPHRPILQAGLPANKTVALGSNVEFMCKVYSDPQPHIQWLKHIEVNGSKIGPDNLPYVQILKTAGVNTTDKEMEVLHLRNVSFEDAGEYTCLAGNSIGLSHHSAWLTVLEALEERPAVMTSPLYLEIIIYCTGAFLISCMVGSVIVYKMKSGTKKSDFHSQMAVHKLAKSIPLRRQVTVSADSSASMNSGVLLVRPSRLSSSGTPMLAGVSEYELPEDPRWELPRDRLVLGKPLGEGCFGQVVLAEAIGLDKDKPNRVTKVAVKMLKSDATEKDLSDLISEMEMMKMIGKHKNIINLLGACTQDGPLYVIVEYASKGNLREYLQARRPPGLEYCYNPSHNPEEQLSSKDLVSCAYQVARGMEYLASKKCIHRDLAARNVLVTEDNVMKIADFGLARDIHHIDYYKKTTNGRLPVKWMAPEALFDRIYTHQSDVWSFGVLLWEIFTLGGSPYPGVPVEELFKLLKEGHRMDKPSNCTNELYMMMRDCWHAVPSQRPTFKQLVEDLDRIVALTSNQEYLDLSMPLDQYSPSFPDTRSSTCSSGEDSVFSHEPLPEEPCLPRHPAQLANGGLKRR
Chain of VEGFR-2 (P35968 20-1356): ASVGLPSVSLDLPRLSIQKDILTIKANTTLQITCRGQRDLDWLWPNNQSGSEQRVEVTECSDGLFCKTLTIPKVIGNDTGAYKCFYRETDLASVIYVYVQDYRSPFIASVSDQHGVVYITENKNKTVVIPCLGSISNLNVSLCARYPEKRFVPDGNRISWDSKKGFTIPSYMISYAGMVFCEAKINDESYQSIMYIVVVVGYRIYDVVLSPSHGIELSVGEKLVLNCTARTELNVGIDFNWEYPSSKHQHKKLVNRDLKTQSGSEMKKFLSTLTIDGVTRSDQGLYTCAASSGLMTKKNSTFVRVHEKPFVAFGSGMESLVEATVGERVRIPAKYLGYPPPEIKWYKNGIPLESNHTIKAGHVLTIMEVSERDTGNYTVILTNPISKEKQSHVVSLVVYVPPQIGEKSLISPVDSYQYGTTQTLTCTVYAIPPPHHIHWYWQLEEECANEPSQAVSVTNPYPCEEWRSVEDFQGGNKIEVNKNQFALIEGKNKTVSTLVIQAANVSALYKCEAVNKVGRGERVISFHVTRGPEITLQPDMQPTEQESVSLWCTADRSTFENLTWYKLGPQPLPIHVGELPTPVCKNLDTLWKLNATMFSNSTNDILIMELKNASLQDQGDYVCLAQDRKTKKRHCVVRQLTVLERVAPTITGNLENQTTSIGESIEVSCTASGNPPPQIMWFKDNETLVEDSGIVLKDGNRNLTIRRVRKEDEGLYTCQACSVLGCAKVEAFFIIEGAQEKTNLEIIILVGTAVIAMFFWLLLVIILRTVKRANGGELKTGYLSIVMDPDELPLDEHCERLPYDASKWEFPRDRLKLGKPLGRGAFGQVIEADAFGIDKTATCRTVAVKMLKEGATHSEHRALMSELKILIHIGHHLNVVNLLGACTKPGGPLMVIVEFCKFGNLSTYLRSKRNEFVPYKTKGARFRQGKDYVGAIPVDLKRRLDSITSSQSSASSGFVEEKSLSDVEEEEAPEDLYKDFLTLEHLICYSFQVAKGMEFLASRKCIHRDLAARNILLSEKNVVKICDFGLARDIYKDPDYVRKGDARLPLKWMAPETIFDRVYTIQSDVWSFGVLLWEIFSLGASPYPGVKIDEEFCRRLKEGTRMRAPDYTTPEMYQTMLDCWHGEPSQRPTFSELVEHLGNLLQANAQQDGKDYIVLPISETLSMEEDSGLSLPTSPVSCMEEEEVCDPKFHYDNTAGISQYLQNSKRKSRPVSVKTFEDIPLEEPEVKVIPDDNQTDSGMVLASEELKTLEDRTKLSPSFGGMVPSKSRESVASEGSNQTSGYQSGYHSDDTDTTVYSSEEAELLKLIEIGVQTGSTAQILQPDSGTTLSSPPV
Chain of BRAFV600E (P15056 whole entry V600E): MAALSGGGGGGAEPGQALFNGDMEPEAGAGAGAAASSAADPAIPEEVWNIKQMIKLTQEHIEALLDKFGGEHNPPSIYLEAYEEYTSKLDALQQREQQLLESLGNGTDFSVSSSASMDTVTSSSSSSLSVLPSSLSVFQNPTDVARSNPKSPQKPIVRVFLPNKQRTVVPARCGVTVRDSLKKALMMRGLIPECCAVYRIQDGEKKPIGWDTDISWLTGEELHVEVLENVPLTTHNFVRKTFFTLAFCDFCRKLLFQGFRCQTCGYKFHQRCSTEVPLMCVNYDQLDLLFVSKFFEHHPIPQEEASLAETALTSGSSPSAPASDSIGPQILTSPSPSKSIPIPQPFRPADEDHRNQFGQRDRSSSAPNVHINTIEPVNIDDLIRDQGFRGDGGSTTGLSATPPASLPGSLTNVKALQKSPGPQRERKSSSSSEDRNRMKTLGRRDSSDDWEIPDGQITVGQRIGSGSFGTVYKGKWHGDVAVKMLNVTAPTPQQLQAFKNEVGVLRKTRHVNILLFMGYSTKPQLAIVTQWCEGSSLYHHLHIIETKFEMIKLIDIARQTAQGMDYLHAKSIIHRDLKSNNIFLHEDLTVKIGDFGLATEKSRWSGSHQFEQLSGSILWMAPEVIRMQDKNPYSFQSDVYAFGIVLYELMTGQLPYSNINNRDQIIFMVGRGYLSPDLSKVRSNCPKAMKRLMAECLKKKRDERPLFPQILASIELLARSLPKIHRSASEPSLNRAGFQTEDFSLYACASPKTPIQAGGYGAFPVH

On to `COC(=O)COc1ccc(C=NNC(=O)Cn2c(-c3ccc(OC)cc3)nc3cc(Cl)c(Cl)cc32)cc1` [Compound 10h, Methyl-2-(4-((2-(2-(5,6-dichloro-2-(4-methoxyphenyl)-1H-benzo[d]imidazol-1-yl)acetyl)hydrazono)methyl)phenoxy)acetate], for which the IC50 – broadly, the point on the concentration scale where inhibition reaches its midpoint – in data set [1] was greater than 100 µM. Also, in data set [2] (setting [6]), the “% of cells in early apoptosis (Q2-4)” value worked out at 2.29%, the “% of cells in late apoptosis (Q2-2)” value came out at 17.56%, the “% of necrotic cells (Q2-1)” value was 3.44% and the “% of viable cells (Q2-3)” value is 76.71%. In addition, the “total % of the cells in the apoptotic phases (Early and late)” value in data set [2] (setting [6]) is recorded as 19.85%. Further, the apoptosis induction result in data set [2] (HT29 colon cancer cell line) is on record as “induced apoptosis”. The compound also displayed an IC50 in data set [3] greater than 10 µM. The 50% inhibitory concentration (IC50) in data set [4] amounted to 1.52 ± 0.14 µM. This compound also gave an IC50 in data set [5] of 2.76 ± 0.15 µM.
